Source: patent publication US9447103B2, “Inauhzin analogues that induce P53, inhibit cell growth, and have antitumor activity” (Indiana University Research and Technology Corp., priority 2012, dated 2016)
Values joined by “and” are separate entries in the source; they are usually repeats but may differ in a detail not shown here. Equal entries are not always repeated. “Also recorded” adds a separate entry of the source. Where two headings read alike, the source gives them in different places.

Legend:
[1] = test system: p53; assay: p53 induction by immunoblotting (IB), H460 and/or HCT116^+/+ cells (line not singled out); assay type: cell-based, human; conditions: 18 hrs; for p53 induction / activation: synthetic analogs, IB, 0.5, 2, 10 μM, compared to INZ; for p53 induction at 0.5 μM: IB
Description: Initial Inauhzin analogs were purchased and tested the activity on H460 and HCT116^p53+/+ by IB.
This study also investigated the activity of the compounds in cell-based assays for their ability to induce p53 levels in p53 containing human colon cancer HCT116^+/+ cells and/or human lung cancer H460 cells using immunoblotting (IB) (FIG. 1 and FIG. 8). […] Both triazino[5,6-b]indol (G1) and phenothiazine (G2) are essential functional groups for p53 induction. […] Therefore, further attention was focused on the structural modifications of the pharmacologically active core: triazino[5,6-b]indol or phenothiazine. Modifications included extension of carbon chain length on R1 (14) (FIG. 2B), the substitution on the phenothiazine ring (G2) (6-13) (FIG. 2A) or on the triazino[5,6-b]indol ring (G1) (15-36) (FIGS. 2B-2D).
(§1) Cell Culture and Immunoblotting Analysis.

[2] = test system: H1299 cells and HCT116^−/− cells; assay: Cell growth inhibition (WST), statements covering p53-null lines; conditions: for inhibitory activity in p53-null cells: in contrast to p53-containing cells
Method: (§2) The EC50 values for their ability to inhibit cell growth were calculated through serial dilution of their concentrations with the highest concentration at 50 μM.
(§3) Human lung carcinoma H460, non-small-cell lung cancer H1299, human colon cancer HCT116 (HCT116^+/+), and human embryonic fibroblast WI-38 were bought from the American Type Culture Collection (ATCC). […] Those cell lines were cultured in Dulbecco's modified Eagle's medium supplemented with 10% fetal bovine serum, 100 U per mL penicillin, and 100 U per mL streptomycin. Compounds were dissolved in DMSO and diluted directly into the medium to the indicated concentrations; 0.1% DMSO was used as a control.
(§4) Cell Viability Assay. To assess cell growth, the cell counting kit (Dojindo Molecular Technologies Inc., Gaithersburg, Md.) was used according to manufacturer's instructions. Cell suspensions were seeded at 3,000 cells per well in 96-well culture plates and incubated overnight at 37° C. Compounds were added into the plates and incubated at 37° C. for 72 hrs. Cell growth inhibition was determined by adding WST-8 at a final concentration of 10% to each well, and the absorbance of the samples was measured at 450 nm using a Microplate Reader (Molecular Device, SpecrtraMax M5^e). EC50 values were determined by the Hill equation using Igor 4.01 (Lake Oswego, Oreg., USA).

[3] = test system: H460 orthotopic lung tumors; assay: H460 orthotopic lung tumor model, bioluminescent imaging; assay type: in vivo, SCID mice; conditions: i.p. 50 mg/kg once a day for 3 weeks, H460-Luc cells in pleural space
Method: FIGS. 13A and 13B show the effects of compound 37 on the growth of H460 orthotopic lung tumors. Each mouse was dosed once a day via i.p. with either vehicle or compound 37 (50 mg/kg) for 3 weeks starting 4 days after implantation of 5×10^5 H460-Luc tumor cells into the pleural space of the SCID mice. […] Each value is a mean of five animals ±SD. FIG. 13B is bioluminescent imaging (BLI) of orthotopic lung tumors in SCID mice.
The effects of compound 8 on the growth of H460 orthotopic lung tumors. Each mouse was dosed once a day via i.p. with either vehicle or 14 (50 mg/kg) for 3 weeks starting 4 days after implantation of 5×10^5 H460-Luc tumor cells into the pleural space of the SCID mice. […] Each value is a mean of five animals ±SD.

[4] = test system: H460; assay: Cell viability assay (3-day WST-8), H460; assay type: cell-based, human; conditions: for fold higher potency than INZ in growth inhibition: H460, versus INZ; for EC90 / EC50: H460, p53 wild type; for EC90: calculated from EC50 and Hill slope, read-out: EC90 cell growth inhibition; for EC50: 72 hrs, average of triplicates, read-out: EC50 cell growth inhibition
Method: (§5) Those cell lines were cultured in Dulbecco's modified Eagle's medium supplemented with 10% fetal bovine serum, 100 U per mL penicillin, and 100 U per mL streptomycin. Compounds were dissolved in DMSO and diluted directly into the medium to the indicated concentrations; 0.1% DMSO was used as a control.
(§6) Cell Viability Assay. To assess cell growth, the cell counting kit (Dojindo Molecular Technologies Inc., Gaithersburg, Md.) was used according to manufacturer's instructions. Cell suspensions were seeded at 3,000 cells per well in 96-well culture plates and incubated overnight at 37° C. Compounds were added into the plates and incubated at 37° C. for 72 hrs. Cell growth inhibition was determined by adding WST-8 at a final concentration of 10% to each well, and the absorbance of the samples was measured at 450 nm using a Microplate Reader (Molecular Device, SpecrtraMax M5^e).

[5] = test system: HCT116^+/+; assay: Cell viability assay (3-day WST-8), HCT116^+/+; assay type: cell-based, human; conditions: for fold higher potency than INZ in growth inhibition: versus INZ
Method: as §5, §6

[6] = test system: H460 and HCT116^+/+ cells; assay: Cell growth inhibition (WST), statements covering both p53-containing lines; assay type: cell-based, human; conditions: for EC90 fold lower than INZ: H460 and HCT116^+/+; for EC90: Homo sapiens, H460 and HCT116^+/+ together, read-out: EC90 values, range over H460 and HCT116^+/+
Description: as §1

[7] = test system: HCT116^−/−; assay: Cell viability assay (3-day WST-8), HCT116^−/− (p53 null); conditions: for EC50: read-out: EC50 cell growth inhibition
Method: as §2, §3, §4

[8] = test system: H1299; assay: Cell viability assay (3-day WST-8), H1299 (p53 null); conditions: for EC50: read-out: EC50 cell growth inhibition
Method: as §5, §6

[9] = test system: xenograft tumors derived from p53-harboring lung cancer H460 and colon cancer HCT116^+/+ cells; conditions: background, earlier work; cited from earlier work
[10] = Homo sapiens, HCT-116, HCT116+/+ cells, values of b177 (differ from Table 1), read-out: EC50 growth inhibition
[11] = Homo sapiens, HCT-116, HCT116^+/+, p53 wild type, calculated from EC50 and Hill slope, read-out: EC90 cell growth inhibition

## CCC(Sc1nnc2c(n1)[nH]c1ccccc12)C(=O)N1c2ccccc2Sc2ccc(Cl)cc21 (stereo not drawn) [Compound 6, 2-((5H-[1,2,4]triazino[5,6-b]indol-3-yl)thio)-1-(2-chloro-10H-phenothiazin-10-yl)butan-1-one]
[1]
  p53 induction / activation: remained active in p53 induction

## CCC(Sc1nnc2c(n1)[nH]c1ccccc12)C(=O)N1c2ccccc2Sc2ccc(OC)cc21 (stereo not drawn) [Compound 7, 2-((5H-[1,2,4]triazino[5,6-b]indol-3-yl)thio)-1-(2-methoxy-10H-phenothiazin-10-yl)butan-1-one]
[1]
  p53 induction / activation: remained active in p53 induction

## CCC(Sc1nnc2c(n1)[nH]c1ccccc12)C(=O)N1c2ccccc2Cc2ccccc21 (stereo not drawn) [Compound 8, 2-((5H-[1,2,4]triazino[5,6-b]indol-3-yl)thio)-1-(acridin-10(9H)-yl)butan-1-one]
[2]
  inhibitory activity in p53-null cells: much less effective
[1]
  p53 induction at 0.5 μM: drastically induced p53
  p53 induction / activation: more potent in p53 activation than their parental compound INZ
[3]
  bioactivity against orthotopic lung cancers (tumor burden by BLI, words): exhibited highly promising bioactivity against orthotopic lung cancers
[4]
  fold higher potency than INZ in growth inhibition: more than 2 fold
[4]; Homo sapiens, NCI-H460
  EC90: 3.5 µM
[5]; HCT116+/+ cells, b177
  EC90 fold lower than INZ: 5 fold
[5]; HCT116^+/+
  fold higher potency than INZ in growth inhibition: more than 2 fold
[5]; HCT116^+/+, listed as INZ-14
  fold higher potency than INZ in growth inhibition: over 2 fold
[5]; Homo sapiens, HCT-116, HCT116+/+ cells, b177, read-out: EC90
  EC90: ~10 µM
[5]; [10]
  EC50: 1.41 µM
[5]; [11]
  EC90: 10 µM
[6]; versus INZ
  EC90 fold lower than INZ: 3-10 fold
[6]
  EC90: 3.5 to 10 µM

## CCCCC(Sc1nnc2c(n1)[nH]c1ccccc12)C(=O)N1c2ccccc2Sc2ccccc21 (stereo not drawn) [Compound 14, 2-((5H-[1,2,4]triazino[5,6-b]indol-3-yl)thio)-1-(10H-phenothiazin-10-yl)hexan-1-one]
[1]
  p53 induction / activation: lower activity for p53 induction

## CCC(Sc1nnc2c(n1)[nH]c1cc(OC)ccc12)C(=O)N1c2ccccc2Sc2ccccc21 (stereo not drawn) [Compound 18, 2-((7-methoxy-5H-[1,2,4]triazino[5,6-b]indol-3-yl)thio)-1-(10H-phenothiazin-10-yl)butan-1-one]
[1]
  p53 induction / activation: marked decrease in p53 activation

## CCC(Sc1nnc2c(n1)[nH]c1cc(C)ccc12)C(=O)N1c2ccccc2Sc2ccccc21 (stereo not drawn) [Compound 19, 2-((7-methyl-5H-[1,2,4]triazino[5,6-b]indol-3-yl)thio)-1-(10H-phenothiazin-10-yl)butan-1-one]
[2]
  inhibitory activity in p53-null cells: much less effective
[1]
  p53 induction at 0.5 μM: significant effect on p53 induction compared to INZ
[6]; versus INZ
  EC90 fold lower than INZ: 1.5 fold
[6]
  EC90: 20 to 30 µM

## CCC(Sc1nnc2c3ccccc3n(C(=O)CCCCC3CC4NC(=O)NC4S3)c2n1)C(=O)N1c2ccccc2Sc2ccccc21 (stereo not drawn) [Compound 20, 5-(5-oxo-5-(3-((1-oxo-1-(10H-phenothiazin-10-yl)butan-2-yl)thio)-5H-[1,2,4]triazino[5,6-b]indol-5-yl)pentyl)tetrahydro-1H-thieno[2,3-d]imidazole-2(5H)-one]
[1]
  p53 induction / activation: as effective as INZ

## CCC(Sc1nnc2c3ccccc3n(C(=O)c3ccccc3)c2n1)C(=O)N1c2ccccc2Sc2ccccc21 (stereo not drawn) [Compound 21, 2-((5-benzoyl-5H-[1,2,4]triazino[5,6-b]indol-3-yl)thio)-1-(10H-phenothiazin-10-yl)butan-1-one]
[2]
  inhibitory activity in p53-null cells: much less effective

## CCOC(=O)Cn1c2ccccc2c2nnc(SC(CC)C(=O)N3c4ccccc4Sc4ccccc43)nc21 (stereo not drawn) [Compound 28, Ethyl 2-(3-((1-oxo-1-(10H-phenothiazin-10-yl)butan-2-yl)thio)-5H-[1,2,4]triazino[5,6-b]indol-5-yl)acetate]
[1]
  p53 induction / activation: essentially inactive

## CCC(Sc1nnc2c3ccccc3n(CC(=O)O)c2n1)C(=O)N1c2ccccc2Sc2ccccc21 (stereo not drawn) [Compound 29, 2-(3-((1-oxo-1-(10H-phenothiazin-10-yl)butan-2-yl)thio)-5H-[1,2,4]triazino[5,6-b]indol-5-yl)acetic acid]
[1]
  p53 induction / activation: essentially inactive

## CCC(Sc1nnc2c3ccccc3n(CCO)c2n1)C(=O)N1c2ccccc2Sc2ccccc21 (stereo not drawn) [Compound 30, 2-((5(2-hydroxyethyl)-5H-[1,2,4]triazino[5,6-b]indol-5-yl)thiol)-1-(10H-phenothiazin-10-yl)butan-1-one]
[2]
  inhibitory activity in p53-null cells: much less effective
[7]; HCT116^−/−, p53 null, 72 hrs
  EC50: 7.8 ± 3.4 µM
[1]
  p53 induction / activation: comparable to compound 8; also recorded: more potent in p53 activation than their parental compound INZ
[4]
  EC50: 3.5 ± 0.4 µM
  EC90: ~7.7 µM and 7.7 µM
[8]; H1299, p53 null, 72 hrs
  EC50: 16.6 µM
[5]; HCT116^+/+, p53 wild type, 72 hrs, read-out: EC50 cell growth inhibition
  EC50: 0.8 ± 0.5 µM
[5]; HCT116^+/+, p53 wild type, calculated from EC50 and Hill slope, read-out: EC90 cell growth inhibition
  EC90: 4.6 µM
[6]; versus INZ
  EC90 fold lower than INZ: 5 fold
[6]; compared with INZ or compound 8
  cell growth inhibition: comparable to compound 8

## C#CCCn1c2ccccc2c2nnc(SC(CC)C(=O)N3c4ccccc4Sc4ccccc43)nc21 (stereo not drawn) [Compound 32, 2-((5(but-3-yn-1-yl)-5H-[1,2,4]triazino[5,6-b]indol-3-yl)thiol)-1-(10H-phenothiazin-10-yl)butan-1-one]
[1]
  p53 induction / activation: significant decrease in activity

## CCC(Sc1nnc2c3ccccc3n(CC(=O)c3ccccc3)c2n1)C(=O)N1c2ccccc2Sc2ccccc21 (stereo not drawn) [Compound 33, 2-((5-(2-oxo-2-phenylethyl)-5H-[1,2,4]triazino[5,6-b]indol-3-yl)thiol)-1-(10H-phenothiazin-10-yl)butan-1-one]
[1]
  p53 induction / activation: significant decrease in activity

## CCC(Sc1nnc2c3ccccc3n(CCO)c2n1)C(=O)N1c2ccccc2Cc2ccccc21 (stereo not drawn) [Compound 37, 1-(acridin-10(9H)-yl)-2-((5-(2-hydroxyethyl)-5H-[1,2,4]triazino[5,6-b]indol-3-yl)thio)butan-1-one]
[2]
  inhibitory activity in p53-null cells: much less effective
[7]; Homo sapiens, HCT-116, read-out: EC90 cell growth inhibition, HCT116^−/−, p53 null, calculated from EC50 and Hill slope
  EC90: > 50 µM
[1]
  p53 induction / activation: more potent in p53 activation than their parental compound INZ
[4]
  fold higher potency than INZ in growth inhibition: 10 fold
[8]; Homo sapiens, NCI-H1299, read-out: EC90 cell growth inhibition, H1299, p53 null, calculated from EC50 and Hill slope
  EC90: > 50 µM
[5]; HCT116^+/+
  fold higher potency than INZ in growth inhibition: 5 fold
[6]; versus INZ
  potency improvement compared to INZ in cancer growth inhibition: 5- to 10 fold

## CCC(Sc1nnc2c(n1)[nH]c1ccccc12)C(=O)N1c2ccccc2Sc2ccccc21 (stereo not drawn) [INZ, 2-((5H-[1,2,4]triazino[5,6-b]indole-3yl)thio)-1-(10H-phenothiazin-10-yl)butan-1-one, reference compound]
[2]; p53-null versus p53-containing
  EC50 fold greater in p53-null cells than in p53-containing cell lines: 1.5 fold
  EC90 fold greater in p53-null cells than in p53-containing cell lines: 5-7 fold
[7]; Homo sapiens, HCT-116, 72 h
  EC50: 13.3 ± 2.4 µM
[7]; Homo sapiens, HCT-116, read-out: EC90 cell growth inhibition
  EC90: 213 µM
[9]
  growth of xenograft tumors: repressed the growth of xenograft tumors
[4]; Homo sapiens, NCI-H460
  EC50: 7.7 ± 1.1 µM
  EC90: ~39.9 µM
[8]; Homo sapiens, NCI-H1299, 72 h
  EC50: 11.6 ± 3.4 µM
[8]; Homo sapiens, NCI-H1299, read-out: EC90 cell growth inhibition
  EC90: 217 µM
[5]; [10]
  EC50: 3.52 µM
[5]; Homo sapiens, HCT-116, HCT116^+/+, p53 wild type, 72 hrs, read-out: EC50 cell growth inhibition
  EC50: 2.7 ± 0.3 µM
[5]; [11]
  EC90: 30.5 µM
